IC50 data for 22 compounds are collected here from US9856279B2 (AGIOS PHARMACEUTICALS, INC, priority 2011, dated 2018).

Structures are written as SMILES.

This assay addresses IDH1 R132H (Homo sapiens, UniProt O75874, R132H). Description: Assay for IDH1 R132H inhibitors (NADPH/aKG, resazurin detection). In kind it is biochemical. The note with it: enzyme assay of Example 12; read-out: IDH1R132H IC50. An outline of the steps: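 Read-out is resorufin fluorescence (Ex544/Em590) 5 min after adding a 30 μM resazurin detection mix. Before that, mutant enzyme (0.2 μg/ml in its mix) ran 50 min at room temperature with compound, 8 uM NADPH and 2 mM aKG (mix levels) in Tris pH 7.5 with NaCl, MgCl2, BSA.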
A general note: Alamar Blue is a resazurin reagent that responds to reducing activity.

Sequence of IDH1 R132H (O75874 whole entry R132H): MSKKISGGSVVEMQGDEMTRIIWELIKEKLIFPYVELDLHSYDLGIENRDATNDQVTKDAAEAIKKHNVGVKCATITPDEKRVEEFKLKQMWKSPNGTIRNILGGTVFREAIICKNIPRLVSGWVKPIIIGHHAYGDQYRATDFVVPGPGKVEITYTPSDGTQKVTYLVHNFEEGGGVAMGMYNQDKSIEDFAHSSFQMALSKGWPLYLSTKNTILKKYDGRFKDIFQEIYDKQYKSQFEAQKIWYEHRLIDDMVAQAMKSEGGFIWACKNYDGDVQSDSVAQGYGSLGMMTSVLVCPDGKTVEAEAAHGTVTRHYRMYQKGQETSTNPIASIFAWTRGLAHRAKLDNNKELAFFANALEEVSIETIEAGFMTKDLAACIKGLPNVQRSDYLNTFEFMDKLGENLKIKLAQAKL

For orientation: IC50 means the concentration at which inhibition is half-maximal. For `N#Cc1cc(-c2cncc(-c3nnn[nH]3)c2)c(C2CC2)nc1N1CCN(C(=O)C2CC2)[C@H](C2CC2)C1` [Compound 554, (R)-6-(4-(cyclopropanecarbonyl)-3-cyclopropylpiperazin-1-yl)-2-cyclopropyl-5′-(1H-tetrazol-5-yl)-[3,3′-bipyridine]-5-carbonitrile], the IC50 is < 500 nM. The result for `C[C@@H]1CN(c2nc(C3CC3)c(-c3cccc4cnccc34)cc2C#N)CCN1C(=O)C1CC1` [Compound 556, (R)-2-(4-(cyclopropanecarbonyl)-3-methylpiperazin-1-yl)-6-cyclopropyl-5-(isoquinolin-5-yl)nicotinonitrile] reads < 500 nM; that for `CCO[C@H]1C[C@H]1C(=O)N1CCN(c2nc(C3CC3)c(-c3ccc(F)cc3)cc2C#N)C[C@H]1C1CC1` [Compound 564, 6-cyclopropyl-2-((R)-3-cyclopropyl-4-((1R,2S)-2-ethoxycyclopropanecarbonyl)piperazin-1-yl)-5-(4-fluorophenyl)nicotinonitrile], < 500 nM. The value for `N#Cc1cc(-c2ccc(C(F)(F)F)nc2)c(C2CC2)nc1N1CCN(C(=O)C2CC2)[C@H](C2CC2)C1` [Compound 567, (R)-6-(4-(cyclopropanecarbonyl)-3-cyclopropylpiperazin-1-yl)-2-cyclopropyl-6′-(trifluoromethyl)-[3,3′-bipyridine]-5-carbonitrile] was 500 to 1000 nM; that for `C[C@@H]1CN(c2nc(C3CC3)c(-c3ccc(C#N)nc3)cc2C#N)CCN1C(=O)C1CC1` [Compound 583, (R)-6-(4-(cyclopropanecarbonyl)-3-methylpiperazin-1-yl)-2-cyclopropyl-3,3′-bipyridine-5,6′-dicarbonitrile] was 500 to 1000 nM. The value for `COCCC(=O)N1CCN(c2nc(C3CC3)c(-c3ccc(C#N)nc3)cc2C#N)C[C@H]1C` [Compound 584, (R)-2-cyclopropyl-6-(4-(3-methoxypropanoyl)-3-methylpiperazin-1-yl)-3,3′-bipyridine-5,6′-dicarbonitrile] was 500 to 1000 nM; that for `COCCC(=O)N1CCN(c2nc(C3CC3)c(-c3cc(Cl)nc(Cl)c3)cc2C#N)C[C@H]1C` [Compound 586, (R)-2′,6′-dichloro-2-cyclopropyl-6-(4-(3-methoxypropanoyl)-3-methylpiperazin-1-yl)-[3,4′-bipyridine]-5-carbonitrile] was < 500 nM; that for `C#Cc1cc(-c2cc(C#N)c(N3CCN(C(=O)C4CC4)[C@H](C)C3)nc2C2CC2)ccn1` [Compound 593, (R)-6-(4-(cyclopropanecarbonyl)-3-methylpiperazin-1-yl)-2-cyclopropyl-2′-ethynyl-3,4′-bipyridine-5-carbonitrile] was 500 to 1000 nM.

For the compound `C=Cc1nc(-c2cc(C#N)c(N3CCN(C(=O)CCOC)[C@H](C)C3)nc2C2CC2)ncc1F` [Compound 601, (R)-6-cyclopropyl-5-(5-fluoro-4-vinylpyrimidin-2-yl)-2-(4-(3-methoxypropanoyl)-3-methylpiperazin-1-yl)nicotinonitrile], the IC50 is < 500 nM.

Consider `COCCC(=O)N1CCN(c2nc(C3CC3)c(-c3cnnc(OS(=O)(=O)C(F)(F)F)c3)cc2C#N)C[C@H]1C` [Compound 614, (R)-5-(5-cyano-2-cyclopropyl-6-(4-(3-methoxypropanoyl)-3-methylpiperazin-1-yl)pyridin-3-yl)pyridazin-3-yl trifluoromethanesulfonate], for which the half-inhibitory concentration (IC50) is < 500 nM.

Turning to `N#Cc1cc(-c2cnnc(O)c2)c(C2CC2)nc1N1CCN(C(=O)C2CC2)[C@H](C2CC2)C1` [Compound 616, (R)-2-(4-(cyclopropanecarbonyl)-3-cyclopropylpiperazin-1-yl)-6-cyclopropyl-5-(6-hydroxypyridazin-4-yl)nicotinonitrile], the IC50 is < 500 nM. The result for `C=CC(=O)N1CC=C(c2cc(C#N)c(N3CCN(C(=O)C4CC4)[C@H](C)C3)nc2C2CC2)CC1` [Compound 630, (R)-5-(1-acryloyl-1,2,3,6-tetrahydropyridin-4-yl)-2-(4-(cyclopropanecarbonyl)-3-methylpiperazin-1-yl)-6-cyclopropylnicotinonitrile] reads 500 to 1000 nM; that for `C=Cc1cc(-c2cc(C#N)c(N3CCN(C(=O)CO)[C@H](C)C3)nc2C2CC2)ccn1` [Compound 632, (R)-2-cyclopropyl-6-(4-(2-hydroxyacetyl)-3-methylpiperazin-1-yl)-2′-vinyl-3,4′-bipyridine-5-carbonitrile], < 500 nM. The result for `Cn1ncc(-c2cc(C#N)c(N3CCN(C(=O)C4CC4)[C@H](C4CC4)C3)nc2C2CC2)cc1=O` [Compound 640, (R)-2-(4-(cyclopropanecarbonyl)-3-cyclopropylpiperazin-1-yl)-6-cyclopropyl-5-(1-methyl-6-oxo-1,6-dihydropyridazin-4-yl)nicotinonitrile] reads < 500 nM. For the compound `N#Cc1cc(-c2cc(C#N)c(N3CCN(C(=O)C4CC4)[C@H](C4CC4)C3)nc2C2CC2)cnn1` [Compound 641, (R)-5-(5-cyano-6-(4-(cyclopropanecarbonyl)-3-cyclopropylpiperazin-1-yl)-2-cyclopropylpyridin-3-yl)pyridazine-3-carbonitrile], the IC50 was < 500 nM.

Take `C=Cc1ccnc(N(c2cc(C=C)ccn2)c2cc(C#N)c(N3CCN(C(=O)CCOC)[C@H](C)C3)nc2C2CC2)c1` [Compound 646, (R)-5-(bis(4-vinylpyridin-2-yl)amino)-6-cyclopropyl-2-(4-(3-methoxypropanoyl)-3-methylpiperazin-1-yl)nicotinonitrile]: the IC50 is < 500 nM.

`COCCC(=O)N1CCN(c2nc(C3CC3)c(-c3ccc(C(=O)N(C)OC)cc3)cc2C#N)C[C@H]1C` [Compound 656, (R)-4-(5-cyano-2-cyclopropyl-6-(4-(3-methoxypropanoyl)-3-methylpiperazin-1-yl)pyridin-3-yl)-N-methoxy-N-methylbenzamide]: the half-maximal inhibitory concentration (IC50) lay in the range of 500 to 1000 nM.

As to `COCCC(=O)N1CCN(c2nc(C3CC3)c(N(c3ccnc(C#N)c3)c3ccnc(C#N)c3)cc2C#N)C[C@H]1C` [Compound 659, (R)-4,4′-(5-cyano-2-cyclopropyl-6-(4-(3-methoxypropanoyl)-3-methylpiperazin-1-yl)pyridin-3-ylazanediyl)dipicolinonitrile], the IC50 is < 500 nM.

With `C[C@@H]1CN(c2nc(C3CC3)c(Nc3ccnc(Cl)c3)cc2C#N)CCN1C(=O)CCO` [Compound 661, (R)-5-((2-chloropyridin-4-yl)amino)-6-cyclopropyl-2-(4-(3-hydroxypropanoyl)-3-methylpiperazin-1-yl)nicotinonitrile], the half-inhibitory concentration (IC50) was < 500 nM.

As to `COCCC(=O)N1CCN(c2nc(C3CC3)c(-c3ccc(C(=O)OC)cc3)cc2C#N)C[C@H]1C` [Compound 665, (R)-methyl-4-(5-cyano-2-cyclopropyl-6-(4-(3-methoxypropanoyl)-3-methylpiperazin-1-yl)pyridin-3-yl)benzoate], the IC50 was < 500 nM. Take `N#Cc1cc(-c2cnnc(O)c2)c(C2CC2)nc1N1CCN(C(=O)CCO)[C@H](C2CC2)C1` [Compound 671, (R)-6-cyclopropyl-2-(3-cyclopropyl-4-(3-hydroxypropanoyl)piperazin-1-yl)-5-(6-hydroxypyridazin-4-yl)nicotinonitrile]: the half-inhibitory concentration (IC50) is < 500 nM.

Consider `COCCC(=O)N1CCN(c2nc(C3CC3)c(-c3cc(Cl)nc(C#N)c3)cc2C#N)C[C@H]1C` [Compound 673, (R)-6′-chloro-2-cyclopropyl-6-(4-(3-methoxypropanoyl)-3-methylpiperazin-1-yl)-[3,4′-bipyridine]-2′,5-dicarbonitrile], for which the concentration for half-maximal inhibition (IC50) is 500 to 1000 nM.
